Experimental data as given in paper PMC12118597 (Science Advances, 2025).
Where “and” joins values, the source holds several entries; their conditions need not be identical. Equal entries are not always repeated. Where two headings read alike, the source gives them in different places.

Target: SARS-CoV-2 NSP3 macrodomain (Mac1) (Severe acute respiratory syndrome coronavirus 2, UniProt P0DTD1)
Format: binding
[1] = DMSO background map; event 1; soak concentration 10 mM
[2] = DMSO background map; soak concentration 10 mM
[3] = PanDDA background density correction factor
[4] = TRUE = ligand-bound crystal structure obtained (PDB code given)
[5] = crystal soak concentration 20 mM, DMSO background map
[6] = crystal soak concentration 20 mM, DMSO background map, event 1
[7] = crystal soak concentration 20 mM, P43 crystals
[8] = crystal soak, P43 crystals; soak concentration 10 mM
[9] = crystal soak, P43 crystals; soak concentration 10 mM for the hits shown
[10] = ligand conformations modeled in the crystal structure
[11] = refined crystallographic occupancy
[12] = site of Mac1 occupied in the X-ray crystal structure (Adenosine or Distal)
[13] = PanDDA background density correction, 1-BDC
[14] = soak concentration 10 mM, DMSO background map
[15] = soak concentration 10 mM, P43 crystals
[16] = soak concentration 3 mM, DMSO background map
[17] = soak concentration 3 mM, P43 crystals

SMILES | Occupancy difference (refined_occupancy - 2*(1-BDC)) | PanDDA run, DMSO background map: 1-BDC [1] | PanDDA run, DMSO background map: Hit [2] | PanDDA run, DMSO background map: Modeled [2] | 1-BDC [3] | X-ray crystal structure [4] | Hit (PanDDA run, DMSO background map) [5] | 1-BDC (PanDDA run, DMSO background map) [6] | Hit (PanDDA run, overall) [7] | Modeling comment (PanDDA run, overall) [7] | PanDDA run, overall: Modeled [8] | PanDDA run, overall: Hit [9] | Total number of conformations [10] | 2*(1-BDC) (%) (occupancy estimate from PanDDA) | Refined ligand occupancy (%) [11] [%] | Binding site [12] | PanDDA run, DMSO background map: 1-BDC [14] | PanDDA run, DMSO background map: Hit [14] | PanDDA run, overall: Hit [15] | other results
O=C(O)C1CCCN1S(=O)(=O)c1cccc2nsnc12 (stereo not shown) [AVI-2] | 10 | 0.2 | TRUE | TRUE | 0.2 | TRUE | TRUE | 0.22 | TRUE | Duplicate, not modeled | TRUE | TRUE | 1 | 40 | 50 | Adenosine | – | – | – | –
c1ccc(-n2nnnc2CSc2nnc(NC3CC3)s2)cc1 [AVI-286] | 0 | 0.11 | TRUE | TRUE | 0.11 | TRUE | – | – | – | – | TRUE | TRUE | 1 | 22 | 22 | Distal | – | – | – | –
O=C(O)C(c1ccccc1)n1sc2ccccc2c1=O (stereo not shown) [AVI-288] | – | 0.26 | TRUE | – | – | TRUE | TRUE | 0.37 | TRUE | – | – | TRUE | – | 74 | – | Adenosine | – | – | – | 1-BDC [13]: 0.37; Modeled (PanDDA run, DMSO background map) [5]: TRUE; Modeled (PanDDA run, overall) [7]: TRUE; PanDDA run, overall: Modeling comment [8]: Duplicate, not modeled; Refined ligand occupancy (%) (crystallographic refinement): 74%
CC(C)n1nnnc1SCc1c(C(=O)O)sc2cccc(F)c12 [AVI-291] | – | 0.25 | TRUE | – | – | TRUE | TRUE | 0.34 | TRUE | Second ligand conformation, not modeled, DMSO x2 | – | TRUE | – | 68 | – | Adenosine | – | – | – | 1-BDC [13]: 0.34; Modeled (PanDDA run, DMSO background map) [5]: TRUE; Modeled (PanDDA run, overall) [7]: TRUE; PanDDA run, overall: Modeling comment [8]: Duplicate, not modeled; Refined ligand occupancy (%) (crystallographic refinement): 68%
Nc1nnc(SCCn2c(=O)oc3ccccc32)s1 [AVI-296] | 0 | 0.06 | TRUE | TRUE | 0.06 | TRUE | – | – | – | – | TRUE | TRUE | 1 | 12 | 12 | Distal | – | – | – | –
CCn1c(C)nnc1Sc1cnc2ccccc2n1 [AVI-297] | – | 0.05 | TRUE | – | – | – | – | – | – | – | – | TRUE | – | – | – | – | – | – | – | PanDDA run, overall: Modeling comment [8]: Only density for quinoxaline, not modeled
CC1CC(C(=O)O)CCN1C(=O)c1ccc2c(c1)OCC(=O)N2 (stereo not shown) [AVI-303] | 0 | 0.13 | TRUE | TRUE | 0.13 | TRUE | TRUE | 0.19 | TRUE | Duplicate, not modeled | TRUE | TRUE | 1 | 26 | 26 | Adenosine | – | – | – | –
COc1ccc(NC(=O)NC2CCCC2)cc1-n1nnnc1C [AVI-311] | – | – | – | – | – | – | TRUE | 0.12 | TRUE | Weak density, not modeled | – | – | – | – | – | – | 0.09 | TRUE | TRUE | PanDDA run, overall: Modeling comment [15]: Weak density, not modeled
O=C(Nc1ccsc1C(=O)O)c1ccc2c(c1)OCO2 [AVI-316] | 0 | – | – | – | 0.07 | TRUE | TRUE | 0.12 | TRUE | Duplicate, not modeled | – | – | 1 | 14 | 14 | Adenosine | 0.07 | TRUE | TRUE | PanDDA run, DMSO background map: Modeled [14]: TRUE; PanDDA run, overall: Modeled [15]: TRUE
Cc1sc2ncnc(Sc3ccccc3C(=O)O)c2c1C [AVI-317] | 30 | – | – | – | 0.15 | TRUE | – | – | – | – | – | – | 2 | 30 | 60 | Adenosine | 0.17 and 0.15 | TRUE | TRUE | PanDDA run, DMSO background map: Modeled [14]: TRUE; PanDDA run, overall: Modeled [15]: TRUE; PanDDA run, overall: Modeling comment [15]: Duplicate, not modeled
Cc1c(C)n(Cc2ccccc2)c2ncnc(N)c12 [AVI-321] | 0 | – | – | – | 0.08 | TRUE | – | – | – | – | – | – | 1 | 16 | 16 | Adenosine | – | – | – | PanDDA run, DMSO background map: 1-BDC [16]: 0.08; PanDDA run, DMSO background map: Hit [16]: TRUE; PanDDA run, DMSO background map: Modeled [16]: TRUE; PanDDA run, overall: Hit [17]: TRUE; PanDDA run, overall: Modeled [17]: TRUE
Cc1cc2c(=O)n(CCN3C(=O)c4ccccc4S3(=O)=O)nnc2s1 [AVI-341] | 14 | – | – | – | 0.18 | TRUE | TRUE | 0.19 | TRUE | Duplicate, not modeled | – | – | 1 | 36 | 50 | Adenosine | 0.18 | TRUE | TRUE | PanDDA run, DMSO background map: Modeled [14]: TRUE; PanDDA run, overall: Modeled [15]: TRUE
